Assay results as given in the supplement of paper PMC10307832.

Assays:
Experiment in all cases: relative viability (nuclei count vs DMSO), 5 days (fraction); higher = more cells survive
[1] = compound: NC(=O)[C@@H](CCC(F)(F)F)N(Cc1ccc(-c2ncon2)cc1F)S(=O)(=O)c1ccc(Cl)cc1 [Avagacestat] + CC(=O)c1c(C)c2cnc(Nc3ccc(N4CCNCC4)cn3)nc2n(C2CCCC2)c1=O [Palbociclib] (partner 0.5 µM)
Outline: (§1)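 Lung cancer cell lines were pin-tool dosed in 1536-well plates on the day after seeding, with either a lone drug or a fixed anchor-drug dose plus five library-drug doses (not always all listed) in √10 steps. Nuclei were counted on 4× images after 5 days. Relative viability is the ratio of treated-well to vehicle-well nuclei counts, with each value a median of duplicate plates.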

[2] = compound: NC(=O)[C@@H](CCC(F)(F)F)N(Cc1ccc(-c2ncon2)cc1F)S(=O)(=O)c1ccc(Cl)cc1 [Avagacestat] + Cc1nc(Nc2ncc(C(=O)Nc3c(C)cccc3Cl)s2)cc(N2CCN(CCO)CC2)n1 [Dasatinib] (partner 0.075 µM)
Outline: as §1

[3] = compound: NC(=O)[C@@H](CCC(F)(F)F)N(Cc1ccc(-c2ncon2)cc1F)S(=O)(=O)c1ccc(Cl)cc1 [Avagacestat] + CCNC(=O)c1noc(-c2cc(C(C)C)c(O)cc2O)c1-c1ccc(CN2CCOCC2)cc1 [Luminespib] (partner 0.01 µM)
Outline: as §1

[4] = compound: NC(=O)[C@@H](CCC(F)(F)F)N(Cc1ccc(-c2ncon2)cc1F)S(=O)(=O)c1ccc(Cl)cc1 [Avagacestat] + CC(C)C[C@H](NC(=O)[C@H](Cc1ccccc1)NC(=O)c1cnccn1)B(O)O [Bortezomib] (partner 0.002 µM)
Outline: as §1

| Cell Line | relative viability ([1]; first compound 0.08 µM) | relative viability ([1]; first compound 0.253 µM) | relative viability ([1]; first compound 0.8 µM) | relative viability ([1]; first compound 2.53 µM) | relative viability ([1]; first compound 8 µM) | relative viability ([2]; first compound 0.08 µM) | relative viability ([2]; first compound 0.253 µM) | relative viability ([2]; first compound 0.8 µM) | relative viability ([2]; first compound 2.53 µM) | relative viability ([2]; first compound 8 µM) | relative viability ([3]; first compound 0.08 µM) | relative viability ([3]; first compound 0.253 µM) | relative viability ([3]; first compound 0.8 µM) | relative viability ([3]; first compound 2.53 µM) | relative viability ([3]; first compound 8 µM) | relative viability ([4]; first compound 0.08 µM) | relative viability ([4]; first compound 0.253 µM) | relative viability ([4]; first compound 0.8 µM) | relative viability ([4]; first compound 2.53 µM) | relative viability ([4]; first compound 8 µM) |
| --- | --- | --- | --- | --- | --- | --- | --- | --- | --- | --- | --- | --- | --- | --- | --- | --- | --- | --- | --- | --- |
| NCI-H2087 | 0.228 | 0.181 | 0.276 | 0.223 | 0.231 | 0.893 | 1.18 | 0.994 | 0.916 | 0.686 | 0.161 | 0.173 | 0.276 | 0.264 | 0.143 | 0.946 | 1.05 | 0.917 | 0.918 | 0.8 |
| RERF-LC-KJ | 1.16 | 1.23 | 1.2 | 1.09 | 1.14 | 0.974 | 0.915 | 0.776 | 0.748 | 0.664 | 1.72 | 1.39 | 1.36 | 1.35 | 1.13 | 1.17 | 1.37 | 1.16 | 1.04 | 1.02 |
| NCI-H2342 | 0.527 | 0.482 | 0.523 | 0.523 | 0.552 | 0.344 | 0.341 | 0.334 | 0.31 | 0.302 | 0.742 | 0.703 | 0.648 | 0.709 | 0.663 | – | – | – | – | – |
| A-427 | 0.506 | 0.517 | 0.516 | 0.539 | 0.544 | 0.785 | 0.859 | 0.755 | 0.935 | 0.649 | 0.91 | 1.13 | 1.05 | 0.81 | 0.821 | 0.957 | 1.08 | 1.07 | 1.07 | 1.08 |
| H3255 | 0.312 | 0.361 | 0.331 | 0.373 | 0.401 | 0.362 | 0.347 | 0.57 | 0.379 | 0.313 | 1.02 | 0.951 | 0.941 | 1.05 | 0.847 | 1.02 | 0.966 | 1.08 | 0.817 | 0.788 |
| HCC-78 | 0.493 | 0.488 | 0.511 | 0.478 | 0.441 | 0.452 | 0.273 | 0.343 | 0.327 | 0.331 | – | – | – | – | – | 0.508 | 0.51 | 0.514 | 0.313 | 0.366 |
| NCI-H1755 | 0.444 | 0.438 | 0.492 | 0.389 | 0.463 | 0.445 | 0.357 | 0.234 | 0.389 | 0.334 | 0.72 | 0.55 | 0.418 | 0.697 | 0.386 | 0.996 | 1.11 | 1.07 | 0.967 | 0.937 |
| NCI-H23 | 0.515 | 0.566 | 0.505 | 0.44 | 0.572 | 0.859 | 0.875 | 0.937 | 0.733 | 0.912 | 0.229 | 0.235 | 0.215 | – | 0.223 | 1.19 | 1.42 | 1.12 | 1 | 0.822 |
| ABC-1 | 0.846 | 0.542 | 0.67 | 0.654 | 0.522 | 0.648 | 0.644 | 0.644 | 0.725 | 0.59 | 0.387 | 0.583 | 0.801 | 0.359 | 0.555 | 0.325 | 0.294 | 0.362 | 0.273 | 0.271 |
| COR-L23 | 0.283 | 0.266 | 0.284 | 0.276 | 0.217 | 0.507 | 0.471 | 0.781 | 0.457 | 0.359 | 1.08 | 0.803 | 1.08 | 0.642 | 0.512 | 1.58 | 1.3 | 1.14 | 1.03 | 0.528 |
| NCI-H1563 | – | – | – | – | – | 0.53 | 0.455 | 0.484 | 0.453 | 0.442 | 0.552 | 0.558 | 0.575 | 0.503 | 0.543 | 0.917 | 0.821 | 0.898 | 0.792 | 0.835 |
| NCI-H358 | 0.148 | 0.137 | 0.126 | 0.143 | 0.132 | 0.163 | 0.159 | 0.164 | 0.155 | 0.148 | 0.449 | 0.467 | 0.368 | 0.412 | 0.244 | – | – | – | – | – |
| EBC-1 | – | – | – | – | – | – | – | – | – | – | – | – | – | – | – | 0.496 | 0.521 | 0.524 | 0.449 | 0.381 |
| SK-MES-1 | 0.318 | 0.342 | 0.329 | 0.307 | 0.32 | 0.33 | 0.301 | 0.394 | 0.247 | 0.364 | 0.863 | 0.865 | 0.724 | 0.616 | 0.788 | – | – | – | – | – |
| HCC-366 | 0.355 | 0.34 | 0.465 | 0.332 | 0.333 | 0.842 | 0.981 | 0.676 | 0.544 | 0.601 | – | – | – | – | – | – | 1.98 | 1.29 | 1.22 | 0.887 |
| NCI-H1944 | 0.32 | 0.343 | 0.265 | 0.272 | 0.269 | 0.199 | 0.201 | 0.227 | 0.202 | 0.222 | 0.731 | 0.941 | 0.591 | 0.515 | 0.599 | – | – | – | – | – |
| NCI-H1299 | – | – | – | – | – | – | – | – | – | – | – | – | – | – | – | 1.03 | 1.01 | 1 | 1.01 | 0.991 |
| NCI-H596 | – | – | – | – | – | 0.592 | 0.651 | 0.654 | 0.451 | 0.648 | 1.19 | 0.876 | 1.35 | 0.924 | 0.756 | 0.956 | 1.13 | 1.13 | 1.14 | 0.823 |
| NCI-H1395 | 0.675 | 0.64 | 0.594 | 0.486 | 0.593 | 0.412 | 0.405 | 0.416 | 0.372 | 0.442 | 0.806 | 0.836 | 0.567 | 0.799 | 0.662 | – | – | – | – | – |
| NCI-H2170 | 0.421 | 0.469 | 0.419 | 0.404 | 0.433 | 0.622 | 0.535 | 0.647 | 0.48 | 0.52 | 0.721 | 0.588 | 0.817 | 0.399 | 0.754 | – | – | – | – | – |
